Values after ≈ are worked out from the molar mass of the structure shown. Active and inactive are the calls of the source. No cut-off for these calls is given here. *1 amine or outer side, *2 acyl side, *3 side chain or, on linkers, in order; H or OH if unused. Where a SMILES comes first, the peptide text is derived from it. [ ]: non-standard residue; d: D form. AzaAla = CN(N[*:1])C(=O)[*:2]; Lac = C[C@H](O)C(=O)O
What was measured:
[1] = molecular target: T1, Pancreatic elastase (Sus scrofa) (UniProt P08419+P00772); assay: Inhibition of porcine pancreatic elastase assessed as Ac-Ala-Ala-Pro-Ala-p-nitroanilide conversion to p-nitroaniline by spectrophotometric analysis; format: protein assay
Pancreatic elastase = Pancreatic elastase (Sus scrofa, UniProt P08419+P00772); assay: Noncompetitive inhibition of porcine pancreatic elastase using Ac-Ala-Ala-Pro-Ala-p-nitroanilide as substrate by Dixon plot analysis; format: protein assay
[2] = molecular target: T1, Pancreatic elastase (Sus scrofa); assay: Activity at porcine pancreatic elastase assessed as compound hydrolysis at 1 mg incubated at room temperature up to 24 hrs by TLC analysis; format: protein assay
[3] = molecular target: T1, Pancreatic elastase (Sus scrofa); assay: Activity at porcine pancreatic elastase assessed as compound hydrolysis at 1 mg incubated at room temperature after 5 mins by TLC analysis; format: protein assay
[4] = molecular target: T1, Pancreatic elastase (Sus scrofa); assay: Reversible inhibition of porcine pancreatic elastase assessed as enzyme recovery by sephadex G-25 rapid passage assay; format: protein assay
[5] = molecular target: T1, Pancreatic elastase (Sus scrofa); assay: Reversible inhibition of porcine pancreatic elastase assessed as enzyme recovery; format: protein assay
[6] = molecular target: T2, Neutrophil elastase (Homo sapiens) (UniProt P08246)
T2 sequence (whole entry): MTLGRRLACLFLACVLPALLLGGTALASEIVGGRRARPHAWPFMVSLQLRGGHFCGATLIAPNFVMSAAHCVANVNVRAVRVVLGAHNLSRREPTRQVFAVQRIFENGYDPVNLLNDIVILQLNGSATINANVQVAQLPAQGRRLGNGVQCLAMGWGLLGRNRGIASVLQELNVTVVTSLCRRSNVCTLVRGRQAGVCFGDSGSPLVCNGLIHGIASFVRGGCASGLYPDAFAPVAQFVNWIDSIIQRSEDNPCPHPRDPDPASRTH
Description: Inhibition of human granulocyte elastase assessed as Ac-Ala-Ala-Pro-Ala-p-nitroanilide conversion to p-nitroaniline by spectrophotometric analysis

SMILES	ID50 [1] [µg/mL]	other results
CC(=O)N[C@@H](C)C(=O)N[C@@H](C)C(=O)N1CCC[C@H]1C(=O)NN(C)C(=O)O[C@@H](C)C(N)=O	0.4 (≈ 0.904 µM)	Ki (Pancreatic elastase): 5 ×10⁻⁷ M
CNC(=O)[C@H](C)OC(=O)N(C)NC(=O)[C@@H]1CCCN1C(=O)[C@H](C)NC(=O)[C@H](C)NC(C)=O	0.4 (≈ 0.876 µM)	Ki (Pancreatic elastase): 6.5 ×10⁻⁷ M
CCOC(=O)NNC(=O)[C@@H]1CCCN1C(=O)[C@H](C)NC(=O)[C@@H]1CCCN1C(C)=O	–	inhibition [1]: inactive
CCOC(=O)N(C)NC(=O)[C@@H]1CCCN1C(=O)[C@H](C)NC(=O)[C@H](C)NC(=O)OCc1ccccc1	30 (≈ 61 µM)	–
CCOC(=O)[C@H](C)OC(=O)N(C)NC(=O)[C@@H]1CCCN1C(=O)[C@H](C)NC(=O)[C@H](C)NC(C)=O	1 (≈ 2.12 µM)	Activity [2]: inactive
CCOC(=O)[C@H](C)OC(=O)N(C)NC(=O)[C@@H]1CCCN1C(=O)[C@H](C)NC(=O)[C@@H]1CCCN1C(C)=O	6 (≈ 12.1 µM)	–
CCOC(=O)N(C)NC(=O)[C@H](C)NC(C)=O	–	inhibition [1]: inactive
CCOC(=O)[C@H](C)OC(=O)N(C)NC(=O)[C@H](CC(C)C)NC(=O)[C@H](C)NC(=O)[C@@H]1CCCN1C(C)=O	15 (≈ 29.2 µM)	–
CCOC(=O)[C@H](C)OC(=O)[C@H](C)OC(=O)[C@@H]1CCCN1C(=O)[C@H](C)NC(=O)[C@H](C)NC(C)=O (Ac-AAP[Lac][Lac]-OEt)	33 (≈ 70 µM)	–
CC(=O)N[C@@H](C)C(=O)N[C@@H](C)C(=O)N1CCC[C@H]1C(=O)NN(C)C(=O)O[C@@H](C)C(=O)NCc1ccccc1	0.3 (≈ 0.563 µM)	Ki (Pancreatic elastase): 8.5 ×10⁻⁷ M
CC(=O)N[C@@H](C)C(=O)N[C@@H](C)C(=O)N1CCC[C@H]1C(=O)NN(C)C(=O)O[C@@H](C)C(=O)NN	0.25 (≈ 0.546 µM)	Ki (Pancreatic elastase): 6.5 ×10⁻⁷ M
CCOC(=O)[C@H](C)OC(=O)N(C)NC(C)=O	–	inhibition [1]: inactive
CCOC(=O)[C@H](C)OC(=O)[C@H](C)OC(=O)N(C)NC(=O)[C@@H]1CCCN1C(=O)[C@H](C)NC(=O)[C@H](C)NC(C)=O	1.5 (≈ 2.76 µM)	–
CCOC(=O)[C@H](C)OC(=O)N(C)NC(=O)[C@H](CC(C)C)NC(=O)[C@H](C)NC(=O)[C@H](C)NC(C)=O	9 (≈ 18.5 µM)	–
CC(=O)N[C@@H](C)C(=O)N[C@@H](C)C(=O)N1CCC[C@H]1C(=O)NN(C)C(=O)O[C@@H](C)C(=O)O	110 (≈ 248 µM)	–
CCOC(=O)[C@H](C)OC(=O)[C@H](C)NC(=O)[C@@H]1CCCN1C(=O)[C@H](C)NC(=O)[C@H](C)NC(C)=O (Ac-AAPA[Lac]-OEt)	167 (≈ 355 µM)	Activity [3]: Active
CCOC(=O)[C@H](C)OC(=O)[C@H](C)NC(=O)[C@@H]1CCCN1C(=O)[C@H](C)NC(=O)[C@@H]1CCCN1C(C)=O (Ac-PAPA[Lac]-OEt)	–	inhibition [1]: inactive; Activity [3]: Active
CCOC(=O)[C@H](C)NC(=O)N(C)NC(=O)[C@@H]1CCCN1C(=O)[C@H](C)NC(=O)[C@H](C)NC(C)=O (Ac-AAP[AzaAla]A-OEt)	100 (≈ 213 µM)	–

SMILES	ID50 [1] [µg/mL]	other results
CC(=O)N[C@@H](C)C(=O)N[C@@H](C)C(=O)N1CCC[C@H]1C(=O)NN(C)C(=O)O[C@@H](C)C(=O)OCc1ccccc1	0.5 (≈ 0.937 µM)	–
CCOC(=O)NNC(=O)[C@@H]1CCCN1C(=O)[C@H](C)NC(=O)[C@H](C)NC(C)=O	–	inhibition [1]: inactive
CCOC(=O)[C@H](Cc1ccccc1)NC(=O)[C@H](C)OC(=O)N(C)NC(=O)[C@@H]1CCCN1C(=O)[C@H](C)NC(=O)[C@H](C)NC(C)=O	2 (≈ 3.23 µM)	–
CCOC(=O)[C@H](C)NC(=O)N(C)NC(=O)[C@@H]1CCCN1C(=O)[C@H](C)NC(=O)[C@@H]1CCCN1C(C)=O (Ac-PAP[AzaAla]A-OEt)	–	inhibition [1]: inactive
CC(=O)N[C@@H](C)C(=O)N[C@@H](C)C(=O)N1CCC[C@H]1C(=O)NN(C)C(=O)O[C@@H](C)C(=O)Nc1ccccc1	0.4 (≈ 0.771 µM)	Ki (Pancreatic elastase): 4.5 ×10⁻⁷ M
CCOC(=O)[C@H](Cc1ccccc1)OC(=O)N(C)NC(=O)[C@@H]1CCCN1C(=O)[C@H](C)NC(=O)[C@H](C)NC(C)=O	2 (≈ 3.65 µM)	–
CCOC(=O)N(C)NC(=O)[C@@H]1CCCN1C(=O)[C@H](C)NC(=O)[C@H](C)NC(=O)OC(C)(C)C	90 (≈ 197 µM)	–
CCOC(=O)C(C)OC(=O)N(C)NC(=O)[C@@H]1CCCN1C(=O)[C@H](C)NC(=O)[C@@H]1CCCN1C(C)=O (stereo partly drawn)	4.5 (≈ 9.04 µM)	–
CCOC(=O)[C@H](C)OC(=O)N(C)NC(=O)[C@H](C)NC(C)=O	–	inhibition [1]: inactive
CC(=O)N1CCC[C@H]1C(=O)N[C@@H](C)C(=O)N1CCC[C@H]1C(=O)NN(C)C(=O)OC(C)C(N)=O (mixture of isomers)	0.3	Ki (Pancreatic elastase): 4.5 ×10⁻⁷ M; Activity [2]: inactive; inhibition [4]: Active; inhibition [5]: inactive
C[C@H](NC(=O)OCc1ccccc1)C(=O)N[C@@H](C)C(=O)N1CCC[C@H]1C(=O)NN(C)C(=O)Oc1ccc([N+](=O)[O-])cc1	1 (≈ 1.71 µM)	–
CCOC(=O)NNC(=O)[C@@H]1CCCN1C(=O)[C@H](C)NC(=O)[C@H](C)NC(=O)OC(C)(C)C	–	inhibition [1]: inactive
CCOC(=O)[C@H](C)OC(=O)[C@H](C)OC(=O)N(C)NC(=O)[C@@H]1CCCN1C(=O)[C@H](C)NC(=O)[C@@H]1CCCN1C(C)=O	1.5 (≈ 2.63 µM)	–
CCOC(=O)[C@H](C)OC(=O)[C@H](C)OC(=O)[C@@H]1CCCN1C(=O)[C@H](C)NC(=O)[C@@H]1CCCN1C(C)=O (Ac-PAP[Lac][Lac]-OEt)	167 (≈ 336 µM)	–
CCOC(=O)N(C)NC(=O)[C@@H]1CCCN1C(=O)[C@H](C)NC(=O)[C@H](C)NC(C)=O	20 (≈ 50.1 µM)	–
CCOC(=O)N(C)NC(=O)[C@@H]1CCCN1C(=O)[C@H](C)NC(=O)[C@@H]1CCCN1C(C)=O	60 (≈ 141 µM)	–
CC(=O)N[C@@H](C)C(=O)N[C@@H](C)C(=O)N1CCC[C@H]1C(=O)NN(C)C(=O)O[C@@H](C)C(=O)N(C)N	2 (≈ 4.24 µM)	ID50 [6]: 50 µg/mL (≈ 106 µM)

From ChEMBL document CHEMBL3272312, “Proteinase inhibitors. I. Inhibitors of elastase” (J Med Chem, 1977)
